Experimental data as given in patent US20250352518A1, “A BENZIMIDAZOLE COMPOUND WITH ANTIHELMINTHIC ACTIVITY FOR USE IN REVERSING, ARRESTING OR SLOWING DOWN CELLULAR AGEING IN A VERTEBRATE SUBJECT” (RAVAN BIO LIMITED, priority 2022, published 2025).

How the values were obtained:
[1] = test system: NHEK cells; assay: Population doublings and telomere loss per population doubling of drug-treated NHEK's (qPCR); format: cell-based, human; conditions: passage 10 and 11 NHEK's, versus DMSO control, FIG. 8b
Method: Sub-confluent passage 2 NHEK's in T75 flasks were cultured in complete KSFM maintained at 5% CO2, 37° C. until ˜80% confluent as described in 1.5. These were subsequently passaged and accurate cell counts determined by Via-1 cassette NC3000 Image Cell Cytometer. An aliquot of 40,000 cells was then seeded into T25 flasks which were incubated for 24 hours in KKSFM at 5% CO2, 37° C. to allow cells to adhere. […] These cultures were then incubated for another 3 days at 5% CO2, 37° C. when confluency was approx 80%. At this point, cells were harvested, Via-1 counts carried out, 50,000 cells pelleted for DNA preparation (DNeasy® Blood & Tissue Kit, Qiagen UK, Cat No 69505) and 40,000 cells seeded into a fresh T-25 flask for each specific drug treatment. The whole procedure was then repeated 8 times until passage 11. Extracted DNA quality and quantity was determined with a QuickDrop DNA Spectrophotometer (Molecular Devices. Model 504 7178) and then this was used to analyse comparative telomere length in each sample by use of a Relative Human Telomerase Length Quantification qPCR Assay Kit (ScienCell™, Cat No 8908) with a Stratagen qPCR/Real Time PCR Machine. Model Mx3005P®. […] Analysis of relative telomere length was carried out on DNA extracted from passages 3-10 in triplicate using a qPCR Assay Kit (ScienCell™, Cat No 8908), according to the manufacturer's instructions.

[2] = Canine case studies: age-related pathologies and tumour observations; format: in vivo, dog
Method: In 2017, a […] (D.O.B Jan. 5, 2008) female Lhasa Apso/Jack Russell/Shih Tzu cross-breed (confirmed by genetic breed analysis: DNA-My-Dog) with a body mass of 9 Kg, was treated with 0.6 gm/day of 22.2% Fenbendazole (Panacur® granules) which was given orally for 3 consecutive days/week for 1 month and this cycle was repeated every 3rd month giving 4 cycles/annum providing a total of 16×1 month treatment cycles spread over a period of 4 yrs up to the present day.
In 2017, a 4 yr old Jack Russell/Poodle/Maltese cross-breed (Confirmed by genetic breed analysis: DNA-My-Dog) with a body mass of 9.2 Kg was treated with 1.0 gm/day of 22.2% Fenbendazole Panacur® granules for 3 days per week and 4 days without. The dosing schedule of 3 days with, 4 days without treatment per week was continued for 3 months after which the dose was reduced to 0.6 gm/day of Panacur® and treatment alternated between 1 month with and 1 month without for 19 months providing a total of 11×1 month treatment cycles over the whole time period. After this, treatment was discontinued for 2 years and 5 months up to 12 May 2022 when a cheek swab was taken for analysis of biological age and this was repeated 5 months later on the 30 Sep. 2022.
The initial reason for treating this animal was that it had been diagnosed with an anal sac adenocarcinoma and, at the time, it was decided to explore the use of Fenbendazole as an alternative treatment. […] Subject C2B's birth date was May 2014 giving a chronological age of 8 yrs which was verified by microchip implantation date using the Petlog database. Following the outlined treatment with Fenbendazole, in April 2022, a cheek epithelium swab was sent to DNA-My-Dog for assessment of breed composition and biological age by analysis of breed-specific telomere length. The result, returned on the 12 May 2022, reported a biological age of 1 yr old indicating a reduction in biological age of 7 yrs. which is equivalent to ˜90% reduction in biological age. […] After a further gap of 5 months without treatment, on the 30 Sep. […] However, unlike subject C2A, no treatment was given during this period so the most likely explanation is that the efficacy time-limit of the initial treatment has been exceeded.

[3] = Rat 4 month medicated feed study: mortality and appetite; format: in vivo, Sprague-Dawley rats
Source text: Seventy-eight Sprague-Dawley rats aged either 16 or 22 months were maintained with daily 12-hour light/dark cycles and allowed constant access to feed and water. The animals were bred and housed at the Cantacuzino National Medico-Military Institute for Research and Development, Bucharest 050096, Romania. These animals were split into 3 separate groups of 26, each containing the same number of younger and older animals, which were then given the following feeds prepared by Altromin Spezialfutter GmbH & Co. for a period of 4 months: • (A) Control maintenance feed plus standard multivitamin supplement (No API's) • (B) Formulation (A) plus 80 mg/Kilo of Fenbendazole. • (C) Formulation (B) plus 12.5 mg/Kilo Tadalafil. A buccal swab was then taken from each animal using an OracollectDNA OCR-100 sampling device (DNA Genotek, Canada). DNA was extracted using a DNeasy® Blood & Tissue Kit (Qiagen UK, Cat No 69505) which was checked for purity and quantified with a QuickDrop Spectrophotometer (Molecular Devices, Model 504 7178). This material was then used to analyse relative telomere length as described in section 1.6 except that the Relative Rat Telomere Length Quantification qPCR Assay Kit (ScienCell Research Labs, Catalog No. R8908) was used. Five consecutive samples from each of the three treatment groups were analysed on each 96 well PCR plate to minimize any inter-plate variability.

[4] = Rat 4 month medicated feed study: relative telomere length in buccal swab DNA (qPCR); format: in vivo, Sprague-Dawley rats; conditions: buccal swabs after 4 months feed; control 1.37 (SD=0.38)
Source text: Seventy-eight Sprague-Dawley rats aged either 16 or 22 months were maintained with daily 12-hour light/dark cycles and allowed constant access to feed and water. The animals were bred and housed at the Cantacuzino National Medico-Military Institute for Research and Development, Bucharest 050096, Romania. […] A buccal swab was then taken from each animal using an OracollectDNA OCR-100 sampling device (DNA Genotek, Canada). DNA was extracted using a DNeasy® Blood & Tissue Kit (Qiagen UK, Cat No 69505) which was checked for purity and quantified with a QuickDrop Spectrophotometer (Molecular Devices, Model 504 7178). […] R8908) was used. Five consecutive samples from each of the three treatment groups were analysed on each 96 well PCR plate to minimize any inter-plate variability.

COC(=O)Nc1nc2ccc(Sc3ccccc3)cc2[nH]1 [Fenbendazole, methyl 5-(phenylthio)-2-benzimidazole carbamate]
relative telomere loss per population doubling [1]: greatest reduction
body weight and physical activity ([2]; dog C2A, during 4 yr treatment): significant weight-loss and increased physical activity
growth of teeth ([2]; dog C2A, during 4 yr treatment): activation of new growth of teeth
skin conditions / subcutaneous lesions ([2]; dog C2A, during 4 yr treatment): normalization of skin and regression of subcutaneous lipoma like lesions
persistence of anti-ageing effects after treatment is discontinued ([2]; dog C2B): at least 2 years
visible signs of ageing ([2]; dog C2B): does not show any visible signs of ageing
anal sac adenocarcinoma tumour ([2]; dog C2B, during treatment): regressed
appetite versus control ([3]; 4 months medicated feed): greater
surviving animals ([3]; after 4 months of medicated feed, groups of 26 rats aged 16 or 22 months, control 18): 23
mortality ([3]; after 4 months of medicated feed, control 30.7%): 11.5%
average telomere length, times that in DNA from a 30 month old comparator [4]: 1.59 (SD=0.48)
